Our source for the IC50 and Ki values is patent publication US9073876B2, “Flap modulators” (JANSSEN PHARMACEUTICA NV, priority 2013, dated 2015).

Assay [1] concerns leukotriene pathway in human whole blood (LTB4 levels). The experiment in a line: Human whole blood assay (LTB4). The class given is cell-based. Particulars: human whole blood diluted 1:1 in RPMI, stimulated with calcium ionophore A23187; single replicate. Summed up: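 Blood (heparin) diluted 1:1 RPMI; compound pre-incubation 15 min, 37° Celsius; A23187 7 μg/mL, 30 min, 37° Celsius; plasma LTB4 by commercial kit. IC50 via 4-parameter equation.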

Assay [2] addresses human FLAP (Homo sapiens (Human), UniProt P20292). The experiment in a line: FLAP binding assay (HTRF). Particulars: human FLAP-containing membranes, HTRF format; average of two assay plates, duplicates; read-out: FLAP Binding wild type HTRF Ki. Summed up: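 HTRF ratio read-out; two independent plates, samples in duplicate on each, values averaged across plates.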

Some results are limits rather than exact numbers.

Chain of human FLAP (P20292 whole entry): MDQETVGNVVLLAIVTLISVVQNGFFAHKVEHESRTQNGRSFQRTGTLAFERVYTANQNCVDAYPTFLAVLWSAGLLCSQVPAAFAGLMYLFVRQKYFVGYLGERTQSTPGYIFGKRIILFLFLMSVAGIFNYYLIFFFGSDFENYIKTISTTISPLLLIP

In the case of `N#Cc1nc(N)cnc1-c1ccc(C2CCC2)c(OCc2cccc(C(=O)O)c2)c1F` [Example 174, 3-{[3-(5-Amino-3-cyanopyrazin-2-yl)-6-cyclobutyl-2-fluorophenoxy]methyl}benzoic acid], in assay [1], the IC50 was found to be 1210 nM. Further, in assay [2], the Ki stood at 5.4 nM.

Regarding `COc1c(C2CCC2)ccc(-c2cnc3[nH]ccc3n2)c1F` [Example 175, 2-(4-cyclobutyl-2-fluoro-3-methoxyphenyl)-5H-pyrrolo[2,3-b]pyrazine], the IC50 in assay [1] was determined as 1280 nM. Moreover, the Ki in assay [2] was 100 nM.

As for `Nc1ccc(-c2ccc(C3CCC3)c(OCc3ccc(C(=O)O)cc3)c2F)cn1` [Example 181, 4-((3-(6-Aminopyridin-3-yl)-6-cyclobutyl-2-fluorophenoxy)methyl)benzoic acid], in assay [1], the IC50 was 10000 nM. Also, in assay [2], the Ki came to 41 nM.

On to `COc1c(C2CCC2)ccc(-c2cnc3[nH]cnc3c2)c1F` [Example 183, 6-(4-Cyclobutyl-2-fluoro-3-methoxyphenyl)-3H-imidazo[4,5-b]pyridine], for which the IC50 in assay [1] is greater than 10000 nM. The Ki in assay [2] amounted to 328 nM.

For `COc1c(C2CCC2)ccc(-c2cnc3c(c2)OCCN3)c1F` [Example 184, 7-(4-cyclobutyl-2-fluoro-3-methoxyphenyl)-3,4-dihydro-2H-pyrido[3,2-b][1,4]oxazine], the IC50 in assay [1] came to 831 nM. For the same compound, the Ki in assay [2] was found to be 14 nM.

Turning to `Oc1c(C2CCC2)ccc(-c2cnc3c(c2)OCCN3)c1F` [Example 185, 6-cyclobutyl-3-(3,4-dihydro-2H-pyrido[3,2-b][1,4]oxazin-7-yl)-2-fluorophenol], the IC50 in assay [1] was found to be 1010 nM. Besides, the Ki in assay [2] worked out at 19.6 nM.

Consider `Fc1c(-c2cnc3c(c2)OCCN3)ccc(C2CCC2)c1OCc1ccccc1` [Example 186, 7-[3-(Benzyloxy)-4-cyclobutyl-2-fluorophenyl]-3,4-dihydro-2H-pyrido[3,2-b][1,4]oxazine], for which the IC50 in assay [1] is 531 nM. Besides, the Ki in assay [2] was found to be 20.5 nM.

`N#Cc1cccc(COc2c(C3CCC3)ccc(-c3cnc4c(c3)OCCN4)c2F)c1` [Example 187, 3-{[6-Cyclobutyl-3-(3,4-dihydro-2H-pyrido[3,2-b][1,4]oxazin-7-yl)-2-fluorophenoxy]-methyl}-benzonitrile]: in assay [1], the IC50 turned out to be 355 nM. Moreover, the Ki in assay [2] is 12 nM.

With `CS(=O)(=O)c1cccc(COc2c(C3CCC3)ccc(-c3cnc4c(c3)OCCN4)c2F)c1` [Example 188, 7-(4-Cyclobutyl-2-fluoro-3-{[3-(methylsulfonyl)-benzyl]oxy}phenyl)-3,4-dihydro-2H-pyrido[3,2-b][1,4]oxazine], the IC50 in assay [1] turned out to be 1100 nM. For the same compound, in assay [2], the Ki is 8.6 nM.

Regarding `CS(=O)(=O)c1ccc(COc2c(C3CCC3)ccc(-c3cnc4c(c3)OCCN4)c2F)cc1` [Example 189, 7-(4-Cyclobutyl-2-fluoro-3-{[4-(methylsulfonyl)-benzyl]-oxy}-phenyl)-3,4-dihydro-2H-pyrido[3,2-b][1,4]oxazine], in assay [1], the IC50 came out at 1140 nM. For the same compound, in assay [2], the Ki was 9.8 nM.

For `N#Cc1ccc(COc2c(C3CCC3)ccc(-c3cnc4c(c3)OCCN4)c2F)cc1` [Example 190, 4-{[6-Cyclobutyl-3-(3,4-dihydro-2H-pyrido[3,2-b][1,4]oxazin-7-yl)-2-fluorophenoxy]-methyl}-benzonitrile], the IC50 in assay [1] was determined as 1060 nM. For the same compound, the Ki in assay [2] came out at 47.2 nM.

In the case of `Fc1c(-c2cnc3c(c2)OCCN3)ccc(C2CCC2)c1OCc1ccc(C(F)(F)F)cc1` [Example 191, 7-(4-Cyclobutyl-2-fluoro-3-{[4-(trifluoromethyl)benzyl]oxy}phenyl)-3,4-dihydro-2H-pyrido[3,2-b][1,4]oxazine], the IC50 in assay [1] is 3430 nM. Besides, the Ki in assay [2] was 250 nM.

As to `NC(=O)c1cccc(COc2c(C3CCC3)ccc(-c3cnc4c(c3)OCCN4)c2F)c1` [Example 192, 3-{[6-Cyclobutyl-3-(3,4-dihydro-2H-pyrido[3,2-b][1,4]oxazin-7-yl)-2-fluorophenoxy]-methyl}-benzamide], the IC50 in assay [1] amounted to 418 nM. Moreover, the Ki in assay [2] came to 5.3 nM.

Turning to `NC(=O)c1ccc(COc2c(C3CCC3)ccc(-c3cnc4c(c3)OCCN4)c2F)cc1` [Example 193, 4-{[6-Cyclobutyl-3-(3,4-dihydro-2H-pyrido[3,2-b][1,4]oxazin-7-yl)-2-fluorophenoxy]-methyl}-benzamide], the IC50 in assay [1] came to 769 nM. Besides, the inhibitory constant (Ki) in assay [2] is 3.7 nM.

As for `Fc1c(-c2cnc3c(c2)OCCN3)ccc(C2CCC2)c1Oc1cccc(C(F)(F)F)n1` [Example 194, 7-(4-Cyclobutyl-2-fluoro-3-{[6-(trifluoromethyl)pyridin-2-yl]oxy}phenyl)-3,4-dihydro-2H-pyrido[3,2-b][1,4]oxazine], in assay [1], the IC50 was 168 nM. Besides, the Ki in assay [2] is 2.9 nM.

For the compound `O=C(O)Cc1ccc(COc2c(C3CCC3)ccc(-c3cnc4c(c3)OCCN4)c2F)cc1` [Example 195, (4-{[6-cyclobutyl-3-(3,4-dihydro-2H-pyrido[3,2-b][1,4]oxazin-7-yl)-2-fluorophenoxy]methyl}phenyl)acetic acid], the IC50 in assay [1] is 446 nM. The Ki in assay [2] came out at 2.2 nM.

`O=C(O)c1ccc(COc2c(C3CCC3)ccc(-c3cnc4c(c3)OCCN4)c2F)cc1` [Example 196, 4-{[6-Cyclobutyl-3-(3,4-dihydro-2H-pyrido[3,2-b][1,4]oxazin-7-yl)-2-fluorophenoxy]methyl}benzoic acid]: in assay [1], the IC50 stood at 871 nM. Besides, the Ki in assay [2] came out at 4.1 nM.

As for `Oc1c(C2CCC2)ccc(-c2cnc3c(c2)CCN3)c1F` [Example 199, 6-Cyclobutyl-3-(2,3-dihydro-1H-pyrrolo[2,3-b]pyridin-5-yl)-2-fluorophenol], the 50% inhibitory concentration (IC50) in assay [1] is 1060 nM. The Ki in assay [2] is 24.2 nM.

On to `CC(C)(C)c1ccc(-c2cnc(N)cn2)c(F)c1O[Si](C)(C)C(C)(C)C` [Example 200, 5-(4-tert-Butyl-3-{[tert-butyl(dimethyl)silyl]oxy}-2-fluorophenyl)pyrazin-2-amine], for which, in assay [1], the IC50 was 1360 nM. Further, the inhibition constant (Ki) in assay [2] came out at 155 nM.

Consider `CC(C)(C)c1ccc(-c2cnc(N)cn2)c(F)c1Oc1ncccn1` [Example 201, 5-[4-tert-Butyl-2-fluoro-3-(pyrimidin-2-yloxy)phenyl]pyrazin-2-amine], for which the IC50 in assay [1] amounted to 51.8 nM. Moreover, in assay [2], the Ki amounted to 8.5 nM.

With `CC(C)(C)c1ccc(-c2cnc(N)cn2)c(F)c1Oc1nccc(N)n1` [Example 203, 2-[3-(5-Aminopyrazin-2-yl)-6-tert-butyl-2-fluorophenoxy]pyrimidin-4-amine], the IC50 in assay [1] was determined as 30.8 nM. Further, in assay [2], the Ki worked out at 6.9 nM.

Consider `COc1cc(Oc2c(C(C)(C)C)ccc(-c3cnc(N)cn3)c2F)ncn1` [Example 204, 5-{4-tert-Butyl-2-fluoro-3-[(6-methoxypyrimidin-4-yl)oxy]phenyl}pyrazin-2-amine], for which the IC50 in assay [1] came to 171 nM. Besides, the Ki in assay [2] stood at 81.5 nM.

Consider `COc1c(C(C)(C)C)ccc(-c2cnc(N)cn2)c1F` [Example 205, 5-(4-tert-Butyl-2-fluoro-3-methoxyphenyl)pyrazin-2-amine], for which the IC50 in assay [1] was 150 nM. The Ki in assay [2] came out at 40.2 nM.

For `CC(C)(C)c1ccc(-c2cnc(N)nc2)c(F)c1Oc1ncccn1` [Example 207, 5-[4-tert-Butyl-2-fluoro-3-(pyrimidin-2-yloxy)phenyl]pyrimidin-2-amine], the IC50 in assay [1] worked out at 72.6 nM. Also, the Ki in assay [2] is 47.4 nM.

As usually defined, the IC50 is the concentration that inhibits the measured activity by half. What is called Ki is a measure of affinity in units of concentration, obtained from inhibition or displacement.
